These compounds were tested on cardiac fibroblast RAT-iCell-C002 (assay: Anti-fibrosis activity test: inhibition of proliferation of cardiac fibroblast RAT-iCell-C002 (CCK-8)). Conditions: Cardiac fibroblast, 48 h, RAT-iCell-C002 cells, CCK-8.
Type: cell-based
Procedure, shortened: (§1)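 48 h compound treatment of fibroblast-type cells seeded at 2×10^4 cells/mL, 37° C, 5% CO2; viability by CCK-8 (2 h, A450). Inhibition rate calculated against blank control, IC50 by curve fitting; pirfenidone served as reference.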

Compound | IC50
Cc1cc(C)c2c(O)c3c(nc2c1)-c1cccn1C3=O [Compound 768b, 9-hydroxy-6,8-dimethyl-10H-pyrrolizino[1,2-b]quinolin-10-one] | 0.05 to 5 mM
O=C1c2c(n(CCN3CCCCC3)c3ccccc3c2=O)-c2cccn21 [Compound 665a, 4-(2-(Piperidin-1-yl)ethyl)-9H-pyrrolizino[1,2-b]quinoline-9,10(4H)-dione] | 0.05 to 5 mM
Cc1ccc(C)c2c(=O)c3c([nH]c12)-c1cccn1C3=O [Compound 772a, 5,8-Dimethyl-9H-pyrrolizino[1,2-b]quinoline-9,10(4H)-dione] | 0.05 to 5 mM
O=C1c2c(nc3ccccc3c2OCCCCN2CCCCC2)-c2cccn21 [Compound 667b, 9-(4-(piperidin-1-yl)butoxy)-10H-pyrrolizino[1,2-b]quinolin-10-one] | 0.05 to 5 mM

These compounds were tested on BHK-21 cells (assay: Anti-fibrosis activity test: inhibition of BHK-21 cell proliferation (CCK-8)). Conditions: Mesocricetus auratus, BHK-21, 48 h, 48 h, CCK-8.
Type: cell-based
Procedure, shortened: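 Proliferation of BHK-21 cells is measured by CCK-8 at 450 nm following 48 h compound exposure at several concentrations. Inhibition is expressed relative to blank control and IC50 is computed from it.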

Compound | IC50
Cc1cc(C)c2c(O)c3c(nc2c1)-c1cccn1C3=O [Compound 768b, 9-hydroxy-6,8-dimethyl-10H-pyrrolizino[1,2-b]quinolin-10-one] | 0.05 to 5 mM
O=C1c2c(n(CCN3CCCCC3)c3ccccc3c2=O)-c2cccn21 [Compound 665a, 4-(2-(Piperidin-1-yl)ethyl)-9H-pyrrolizino[1,2-b]quinoline-9,10(4H)-dione] | 0.05 to 5 mM
Cc1ccc(C)c2c(=O)c3c([nH]c12)-c1cccn1C3=O [Compound 772a, 5,8-Dimethyl-9H-pyrrolizino[1,2-b]quinoline-9,10(4H)-dione] | < 0.05 mM
O=C1c2c(nc3ccccc3c2OCCCCN2CCCCC2)-c2cccn21 [Compound 667b, 9-(4-(piperidin-1-yl)butoxy)-10H-pyrrolizino[1,2-b]quinolin-10-one] | 0.05 to 5 mM

These compounds were tested on NF-κB (assay: Immunological activity test: inhibition of NF-κB activity). Conditions: initial concentration of 30 μM; a/b isomers given as first/second symbol; read-out: IC50 (μM), inhibitory activity against NF-κB.
Type: cell-based
Procedure, shortened: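 Compounds were first screened for inhibition of NF-κB activity at 30 μM, with parthenolide as the positive control. IC50 values were then determined for the compounds by further analysis of the assay data.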

Compound | IC50
Cc1cc(C)c2c(O)c3c(nc2c1)-c1cccn1C3=O [Compound 768b, 9-hydroxy-6,8-dimethyl-10H-pyrrolizino[1,2-b]quinolin-10-one] | 1 to 10 µM
O=C1c2c(n(CCN3CCCCC3)c3ccccc3c2=O)-c2cccn21 [Compound 665a, 4-(2-(Piperidin-1-yl)ethyl)-9H-pyrrolizino[1,2-b]quinoline-9,10(4H)-dione] | 0.1 to 1 µM
Cc1ccc(C)c2c(=O)c3c([nH]c12)-c1cccn1C3=O [Compound 772a, 5,8-Dimethyl-9H-pyrrolizino[1,2-b]quinoline-9,10(4H)-dione] | 1 to 10 µM
O=C1c2c(nc3ccccc3c2OCCCCN2CCCCC2)-c2cccn21 [Compound 667b, 9-(4-(piperidin-1-yl)butoxy)-10H-pyrrolizino[1,2-b]quinolin-10-one] | 1 to 10 µM

These compounds were tested on human fibrosarcoma cells HT-1080 (assay: Anti-fibrosis activity test: inhibition of proliferation of human fibrosarcoma cells HT-1080 (CCK-8)). Conditions: Homo sapiens, HT-1080, 48 h, HT-1080 cells, 48 h, CCK-8.
Type: cell-based
Procedure, shortened: as §1

Compound | IC50
Cc1cc(C)c2c(O)c3c(nc2c1)-c1cccn1C3=O [Compound 768b, 9-hydroxy-6,8-dimethyl-10H-pyrrolizino[1,2-b]quinolin-10-one] | 0.05 to 5 mM
O=C1c2c(n(CCN3CCCCC3)c3ccccc3c2=O)-c2cccn21 [Compound 665a, 4-(2-(Piperidin-1-yl)ethyl)-9H-pyrrolizino[1,2-b]quinoline-9,10(4H)-dione] | 0.05 to 5 mM
Cc1ccc(C)c2c(=O)c3c([nH]c12)-c1cccn1C3=O [Compound 772a, 5,8-Dimethyl-9H-pyrrolizino[1,2-b]quinoline-9,10(4H)-dione] | 0.05 to 5 mM
O=C1c2c(nc3ccccc3c2OCCCCN2CCCCC2)-c2cccn21 [Compound 667b, 9-(4-(piperidin-1-yl)butoxy)-10H-pyrrolizino[1,2-b]quinolin-10-one] | 0.05 to 5 mM

The compounds below were run on human dermal fibroblasts CCC-ESF-1 (assay: Anti-fibrosis activity test: inhibition of proliferation of human dermal fibroblasts CCC-ESF-1 (CCK-8)). Conditions: Homo sapiens, Fibroblast; CCC-ESF-1 cells, 48 h, CCK-8.
Type: cell-based
Procedure, shortened: as §1

Compound | IC50
Cc1cc(C)c2c(O)c3c(nc2c1)-c1cccn1C3=O [Compound 768b, 9-hydroxy-6,8-dimethyl-10H-pyrrolizino[1,2-b]quinolin-10-one] | 0.05 to 5 mM
O=C1c2c(n(CCN3CCCCC3)c3ccccc3c2=O)-c2cccn21 [Compound 665a, 4-(2-(Piperidin-1-yl)ethyl)-9H-pyrrolizino[1,2-b]quinoline-9,10(4H)-dione] | 0.05 to 5 mM
Cc1ccc(C)c2c(=O)c3c([nH]c12)-c1cccn1C3=O [Compound 772a, 5,8-Dimethyl-9H-pyrrolizino[1,2-b]quinoline-9,10(4H)-dione] | 0.05 to 5 mM
O=C1c2c(nc3ccccc3c2OCCCCN2CCCCC2)-c2cccn21 [Compound 667b, 9-(4-(piperidin-1-yl)butoxy)-10H-pyrrolizino[1,2-b]quinolin-10-one] | 0.05 to 5 mM

These compounds were tested on human hepatic stellate cells LX-2 (assay: Anti-fibrosis activity test: inhibition of proliferation of human hepatic stellate cells LX-2 (CCK-8)). Conditions: Homo sapiens, LX-2, 48 h, LX-2 cells, 48 h, CCK-8.
Type: cell-based
Procedure, shortened: as §1

Compound | IC50
Cc1cc(C)c2c(O)c3c(nc2c1)-c1cccn1C3=O [Compound 768b, 9-hydroxy-6,8-dimethyl-10H-pyrrolizino[1,2-b]quinolin-10-one] | 0.05 to 5 mM
O=C1c2c(n(CCN3CCCCC3)c3ccccc3c2=O)-c2cccn21 [Compound 665a, 4-(2-(Piperidin-1-yl)ethyl)-9H-pyrrolizino[1,2-b]quinoline-9,10(4H)-dione] | < 0.05 mM
Cc1ccc(C)c2c(=O)c3c([nH]c12)-c1cccn1C3=O [Compound 772a, 5,8-Dimethyl-9H-pyrrolizino[1,2-b]quinoline-9,10(4H)-dione] | 0.05 to 5 mM
O=C1c2c(nc3ccccc3c2OCCCCN2CCCCC2)-c2cccn21 [Compound 667b, 9-(4-(piperidin-1-yl)butoxy)-10H-pyrrolizino[1,2-b]quinolin-10-one] | 0.05 to 5 mM

What follows are compounds tested on human embryonic lung fibroblast IMR-90 (assay: Anti-fibrosis activity test: inhibition of proliferation of human embryonic lung fibroblast IMR-90 (CCK-8)). Conditions: Homo sapiens; IMR-90 cells, 48 h, CCK-8.
Type: cell-based
Procedure, shortened: as §1

Compound | IC50
Cc1cc(C)c2c(O)c3c(nc2c1)-c1cccn1C3=O [Compound 768b, 9-hydroxy-6,8-dimethyl-10H-pyrrolizino[1,2-b]quinolin-10-one] | 0.05 to 5 mM
O=C1c2c(n(CCN3CCCCC3)c3ccccc3c2=O)-c2cccn21 [Compound 665a, 4-(2-(Piperidin-1-yl)ethyl)-9H-pyrrolizino[1,2-b]quinoline-9,10(4H)-dione] | 0.05 to 5 mM
Cc1ccc(C)c2c(=O)c3c([nH]c12)-c1cccn1C3=O [Compound 772a, 5,8-Dimethyl-9H-pyrrolizino[1,2-b]quinoline-9,10(4H)-dione] | 0.05 to 5 mM
O=C1c2c(nc3ccccc3c2OCCCCN2CCCCC2)-c2cccn21 [Compound 667b, 9-(4-(piperidin-1-yl)butoxy)-10H-pyrrolizino[1,2-b]quinolin-10-one] | 0.05 to 5 mM

What follows are compounds tested on human lung fibroblasts HFL1 (assay: Anti-fibrosis activity test: inhibition of proliferation of human lung fibroblasts HFL1 (CCK-8)). Conditions: Homo sapiens, HFL1, 48 h, HFL1 cells, 48 h, CCK-8.
Type: cell-based
Procedure, shortened: as §1

Compound | IC50
Cc1cc(C)c2c(O)c3c(nc2c1)-c1cccn1C3=O [Compound 768b, 9-hydroxy-6,8-dimethyl-10H-pyrrolizino[1,2-b]quinolin-10-one] | 0.05 to 5 mM
O=C1c2c(n(CCN3CCCCC3)c3ccccc3c2=O)-c2cccn21 [Compound 665a, 4-(2-(Piperidin-1-yl)ethyl)-9H-pyrrolizino[1,2-b]quinoline-9,10(4H)-dione] | 0.05 to 5 mM
Cc1ccc(C)c2c(=O)c3c([nH]c12)-c1cccn1C3=O [Compound 772a, 5,8-Dimethyl-9H-pyrrolizino[1,2-b]quinoline-9,10(4H)-dione] | 0.05 to 5 mM
O=C1c2c(nc3ccccc3c2OCCCCN2CCCCC2)-c2cccn21 [Compound 667b, 9-(4-(piperidin-1-yl)butoxy)-10H-pyrrolizino[1,2-b]quinolin-10-one] | 0.05 to 5 mM

What follows are compounds tested on mouse macrophages (RAW264.7) (assay: Lipopolysaccharide-induced NO secretion in macrophages (Griess)). Conditions: Mus musculus, RAW264.7, 24 h, RAW264.7, LPS 1 μg/ml, a/b isomers given as first/second symbol, read-out: IC50 (μM), inhibition of lipopolysaccharide-induced NO secretion in macrophages.
Type: cell-based
Procedure, shortened: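 RAW264.7 macrophages in DMEM with 10% FBS received test samples at several concentrations and were stimulated with 1 μg/ml LPS for 24 h. NO in the supernatant was measured with the Griess reagent at 548 nm, […].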

Compound | IC50
Cc1cc(C)c2c(O)c3c(nc2c1)-c1cccn1C3=O [Compound 768b, 9-hydroxy-6,8-dimethyl-10H-pyrrolizino[1,2-b]quinolin-10-one] | 1 to 10 µM
O=C1c2c(n(CCN3CCCCC3)c3ccccc3c2=O)-c2cccn21 [Compound 665a, 4-(2-(Piperidin-1-yl)ethyl)-9H-pyrrolizino[1,2-b]quinoline-9,10(4H)-dione] | 1 to 10 µM
Cc1ccc(C)c2c(=O)c3c([nH]c12)-c1cccn1C3=O [Compound 772a, 5,8-Dimethyl-9H-pyrrolizino[1,2-b]quinoline-9,10(4H)-dione] | 1 to 10 µM
O=C1c2c(nc3ccccc3c2OCCCCN2CCCCC2)-c2cccn21 [Compound 667b, 9-(4-(piperidin-1-yl)butoxy)-10H-pyrrolizino[1,2-b]quinolin-10-one] | 1 to 10 µM
